Earlier results, collected in patent US4242298A, “Polysaccharide ester membrane clearing process” (priority 1979, dated 1980).
Read-outs that look alike come from different tables or passages of the source.

What was measured:
rat [1] = settings: inhalation
rat [2] = settings: oral
rats [3] = settings: 2000 ppm, 8 hours
rats [4] = settings: 6 hours
rats [5] = settings: number of hours not given

Structure (SMILES) | LCLo (rat [1]; 4H) [ppm] | LD50 (rat [2]) [mg/kg] | also measured
CCOCCO [2-ethoxyethanol] | 4000 | 3000 | –
CC(=O)O [Acetic Acid, reference compound] | 1600 | – | –
CC(=O)CO [acetol] | – | 2200 | lethality on exposure (rats [3]): nonlethal
O=C1CCCCC1 [Cyclohexanone, reference compound] | 2000 | 1620 | –
COC(=O)CC(C)=O [methyl acetoacetate] | – | 3000 | animal's growth, following exposure (rats [4]; 1370 ppm (calculated)): normal; symptoms on exposure (rats [4]; 1370 ppm (calculated)): no symptoms; lethality on exposure to concentrated vapor (rats [5]): nonlethal
CCOCCOC(C)=O [2-ethoxyethyl acetate] | – | 5100 | LCLo (rat [1]; 8H): 1500 ppm
CCOC(=O)CC(C)=O [ethyl acetoacetate] | – | – | animal's growth, following exposure (rats [4]; 1129 ppm (calculated)): normal; symptoms on exposure (rats [4]; 1129 ppm (calculated)): no symptoms
